Values quoted from earlier work, collected in patent publication US7964627B2, “Amino arylsulfonamide compounds and their use as 5-HT6 ligands” (Suven Life Sciences Limited, priority 2007, dated 2011).

System: animal models for schizophrenia
Details: Pouzet et al. 2002; cited from earlier work

COc1ccc(NS(=O)(=O)c2sc3ccc(Cl)cc3c2C)cc1N1CCNCC1 [SB-271046, 5-Chloro-N-(4-methoxy-3-piperazin-1-ylphenyl)-3-methyl-2-benzothiophenesulfonamide]
Activity in animal tests related to positive or negative symptoms of schizophrenia: inactive
